The structures appear in SMILES notation. “Also recorded” adds a separate entry of the source.

The text below walks through data of publication PMC8422859, “A Novel Oral Arginase 1/2 Inhibitor Enhances the Antitumor Effect of PD-1 Inhibition in Murine Experimental Gliomas by Altering the Immunosuppressive Environment” (Frontiers in Oncology, 2021).

Series [1] deals with U87-MG glioma cells. The series can be described thus: Matrigel invasion assay, U87-MG co-cultured with BV2 microglia. It is filed as cell-based, human. As to the method:
(§1) BV2 cells were plated onto a 24-well plate at the density of 4×10^4. After 24 h, the invasion assay was performed with tissue culture inserts (6.5 mm Transwell® with 8.0 µm Pore Polycarbonate Membrane Insert, Corning, NY, USA) coated with the Growth Factor Reduced Matrigel™ Matrix (BD Biosciences, San Diego. CA, USA). The Matrigel™ Matrix (50 µL of 1 mg/mL stock solution diluted in fresh DMEM) was dried under sterile conditions (37°C) for 5–6 h. The medium in BV2 cultures was replaced with fresh one 1 h before seeding glioblastoma cells onto the inserts, then LN18 and U87 glioblastoma cells were seeded at 2×10^4/insert on Matrigel-covered membranes in a serum-reduced medium (2% FBS). Untreated glioblastoma cells co-cultured with or without BV2 cells served as positive and negative controls, respectively. Cells were treated with the arginase-1 inhibitors OAT-90, OAT-1617 and OAT-1746 solved in PBS. The cultures were kept in incubator at 37°C with humidified air containing 5% CO2. After 18 h cells were fixed in ice-cold methanol and cell nuclei stained with DAPI (4′,6-Diamidino-2-Phenylindole; 1 µg/mL, Sigma). The membranes from Transwell® inserts were cut out and images were acquired using a fluorescence microscope (Leica DM4000B, 10x lens) from the 5 independent fields (bottom; top; left; right side and the middle). Numbers of invading cells were counted using the ImageJ software (NIH, Bethesda, MD, USA). All experiments were performed three times, in duplicates.

Series [2] deals with LN18 glioma cells. The series can be described thus: Matrigel invasion assay, LN18 co-cultured with BV2 microglia. Format: cell-based, human. Particulars: 11 µM, co-culture with BV2, 18 h. As to the method:
as §1, with “After 18 h cells were fixed in ice-cold methanol and cell nuclei stained with DAPI (4′,6-Diamidino-2-Phenylindole; 1 µg/mL, Sigma).” left out, “All experiments were performed three times, in duplicates.” left out

The test system of series [3] is U87-MG human glioma cells. Briefly: MTT viability assay, U87-MG. Particulars: 24 h. Format: cell-based. Here is the method: (§2) Cell viability was assessed using MTT metabolism assay (U87 and BV2 cells) or MTS CellTiter 96® AQueous One Solution Cell Proliferation Assay (Promega) for the primary murine microglia cultures. Cells were cultured either in 96-well plates (U87 at density of 1×10^4) or 24-well plates (BV2 at density of 4×10^4 and primary microglia 8×10^4) with the indicated concentrations of the inhibitor or H2O (vehicle) for 24 h. MTT solution (Sigma Aldrich) was added to each well to a final concentration of 0.5 mg/mL. After 1 h of incubation at 37°C, water-insoluble dark blue formazan crystals were dissolved in DMSO. Optical densities (OD) were measured at 570 and 620 nm using a scanning multiwell spectrophotometer. The MTT assay was performed according to the manufacturer’s protocol. All measurements were carried out on three independent cell passages, in triplicates.
On the technique in general: Formazan colour is commonly taken as a measure of viable cells.

The test system of series [4] is primary murine microglia. Briefly: Viability assay, primary microglia. Format: cell-based, mouse. Particulars: 24 h, concentrations up to 1000 µM. As to the method:
as §2

Series [5] can be described thus: Drug concentration in brain by LC-MS. Format: in vivo, mouse. Particulars: GL261-bearing mice, 50 mg/kg oral twice a day, 14 days, 2 h after last dose. As to the method: (§3) Blood plasma, as well as the brain samples (from control and treated animals), were prepared for liquid chromatography coupled with mass spectrometry (LC-MS) by homogenization in 5% trichloroacetic acid (TCA) and the concentration of L-arginine – the substrate of arginase – was determined. In the urea cycle, arginase cleaves arginine to produce urea and ornithine. Ornithine reacts with carbamoyl phosphate to form citrulline. The brain homogenates prepared for arginine measurements, as well as plasma samples were also analyzed by LC-MS to determine the concentration of the drug, which was administered to animals 2 h before the euthanasia.

For series [6], the system named is L-arginine (substrate of arginase). Briefly: L-arginine concentration in brain and plasma by LC-MS. Particulars: GL261-bearing mice, 50 mg/kg oral twice a day, day 14, 2 h after last dose. It is filed as in vivo, mouse. As to the method: as §3
The test system of series [7] is glioma-associated CD11b+ cells. Briefly: RNA-seq of CD11b+ cells from tumor-bearing hemispheres. Format: in vivo, mouse. Here is the method: Immediately after sorting, CD11b^+ cells were centrifuged and lysed for further isolation of RNA using the RNeasy Plus Mini Kit (Qiagen, Germany). The integrity and quality of RNA were assessed on an Agilent 2100 Bioanalyzer with an RNA 6000 Pico Kit (Agilent Technologies, CA, USA). A total of 9 strand-specific RNA libraries were prepared for sequencing (2-3 biological replicates/treatment) using a KAPA Stranded mRNA-Seq Kit (Kapa Biosystems, MA, USA). Poly-A mRNAs were purified from 100 ng of total RNA using poly-T-oligo-magnetic beads (Kapa Biosystems, MA, USA). mRNAs were fragmented and a first-strand cDNA was synthesized using reverse transcriptase and random hexamers. […] Final libraries were analyzed using Bioanalyzer and Agilent DNA High Sensitivity chips (Agilent Technologies, Santa Clara, CA, USA) to confirm fragment sizes (~300 bp). Quantification was performed using a Quantus fluorometer and the QuantiFluor dsDNA System (Promega, Madison, Wisconsin, US). […]
Illumina-specific adapters, short reads, and low quality 5’ and 3’ bases were filtered out in the FASTQ format files using Trimmomatic ([27]) tool (version 0.36). The resulting RNA sequencing reads were aligned to a reference mouse genome sequence (mm10) with STAR aligner ([28]) (version 2.6.1b) using the two pass Mode Basic option. […]

As to `CN(C)C[C@@H]1CC[C@@H](CCB(O)O)C[C@]1(N)C(=O)O` [OAT-1746], the “microglia-induced invasion of U87-MG cells” value in series [1] (11 µM, co-culture with BV2, 18 h) was “effectively reduced glioma invasion; also recorded: reduced microglia-induced invasion of glioma cells more efficiently”. Further, the “concentration dependence of the inhibitory effect on glioma invasion” value in series [1] (0.1 and 11 µM, U87-MG with BV2) is “concentration-dependent”. Moreover, the “microglia-induced invasion of LN18 cells” value in series [2] was “effectively reduced glioma invasion; also recorded: reduced microglia-induced invasion of glioma cells more efficiently”. In addition, the “reduction of the cell viability in U87-MG glioma cells” value in series [3] (1 mM) is reported as 20%. Moreover, the “viability of U87-MG cells (toxicity)” value in series [3] (concentrations up to 1000 µM) was “a decrease in the viability of U87-MG cells was observed at the highest concentration”. In addition, the “viability of primary murine microglia (toxicity)” value in series [4] is “not toxic”. The “OAT-1746 in the brain (crossing of the BBB)” value in series [5] is “detected in the brain extracts”. Further, in series [6], the “arginine concentration in the blood plasma” value was “increase of arginine concentration” and the “arginine concentration in the brain” value is recorded as “increase of arginine concentration”. Also, the “differentially expressed genes versus CTR (padj<0.05)” value in series [7] is recorded as “over 1800 genes”.
